Target: T1, Aromatase (Rattus norvegicus, UniProt P22443)
T1 construct: Invantile weibliche Ratten reagieren auf PMSG (Pregnant Mare's Serum Gonadotropin)-Behandlung mit einheitlich erhöhter Steroidsynthese; from tissue; host or cells: living infantile female rats (whole animal; serum estradiol read-out)
T1 sequence (P22443 1-508): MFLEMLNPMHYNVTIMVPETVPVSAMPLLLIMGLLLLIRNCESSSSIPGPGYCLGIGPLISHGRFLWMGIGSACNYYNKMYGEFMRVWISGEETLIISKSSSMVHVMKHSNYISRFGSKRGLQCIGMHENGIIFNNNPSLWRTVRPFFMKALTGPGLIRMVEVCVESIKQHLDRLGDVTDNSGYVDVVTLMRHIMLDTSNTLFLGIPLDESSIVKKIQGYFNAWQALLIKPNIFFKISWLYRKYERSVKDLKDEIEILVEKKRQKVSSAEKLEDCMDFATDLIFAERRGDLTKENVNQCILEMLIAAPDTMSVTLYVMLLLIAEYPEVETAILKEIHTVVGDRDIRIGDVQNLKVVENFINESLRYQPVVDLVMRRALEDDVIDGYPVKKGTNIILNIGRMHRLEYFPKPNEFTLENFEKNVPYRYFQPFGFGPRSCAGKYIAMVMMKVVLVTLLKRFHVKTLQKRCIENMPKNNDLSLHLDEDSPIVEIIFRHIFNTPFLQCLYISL
Test: PMSG test in infantile female rats (serum estradiol by radioimmunoassay)
Format: in vivo, Ratte
Conditions: for Konzentration im Serum Östradiol: infantile Ratten, PMSG-stimulated, 2 x 10 mg/Tier p.o., serum 24 h after last PMSG, mean ± SD, 10 animals per group

**Q.** How did the Wirksamkeit (PMSG test, oral application, dose range tested 2 x 10 mg, result in words) turn out when C[C@]12CCC(=O)C(O)=C1CC[C@@H]1[C@@H]2CC[C@]2(C)C(=O)CC[C@@H]12 [A, 4-Hydroxy-4-androsten-3,17-dion] was run?
**A.** Its Wirksamkeit is “keine Wirksamkeit”.

**Q.** And the “Konzentration im Serum Östradiol” value?
**A.** Its value is 3,45 ± 0,18 nMol/l.

**Q.** For CC[C@@H]1CC(=O)[C@@]2(C)CC[C@H]3[C@@H](CCC4=C(O)C(=O)CC[C@@]43C)[C@H]12 [B, 15β-Ethyl-4-hydroxy-4-androsten-3,17-dion], which “Konzentration im Serum Östradiol” value is on record?
**A.** The value was 2,83 ± 0,29 nMol/l.

**Q.** CC[C@@H]1CC(=O)[C@@]2(C)CC[C@H]3[C@@H](CCC4=C(OC(C)=O)C(=O)CC[C@@]43C)[C@H]12 [C, 4-Acetoxy-15β-ethyl-4-androsten-3,17-dion] was tested. Which “Konzentration im Serum Östradiol” value did it give?
**A.** The value was 2,34 ± 0,46 nMol/l.

From patent publication EP0286578A1, “4,15-Disubstituted 4-androsten-3,17-diones, and process for their preparation” (SCHERING AKTIENGESELLSCHAFT, priority 1987, dated 1988)
